This passage reports Kd results from ChEMBL document CHEMBL3991601, “The target landscape of clinical kinase drugs” (Science, 2017).

For experiment [1], the target named is Cyclin-dependent kinase 4 (Homo sapiens, UniProt P11802).
In experiment [2] the target is NADH dehydrogenase [ubiquinone] 1 alpha subcomplex subunit 13 (Homo sapiens, UniProt Q9P0J0).
For experiment [3], the target named is T1, Serine/threonine-protein kinase Nek9 (Homo sapiens, UniProt Q8TD19).
T1 sequence (Q8TD19 whole entry): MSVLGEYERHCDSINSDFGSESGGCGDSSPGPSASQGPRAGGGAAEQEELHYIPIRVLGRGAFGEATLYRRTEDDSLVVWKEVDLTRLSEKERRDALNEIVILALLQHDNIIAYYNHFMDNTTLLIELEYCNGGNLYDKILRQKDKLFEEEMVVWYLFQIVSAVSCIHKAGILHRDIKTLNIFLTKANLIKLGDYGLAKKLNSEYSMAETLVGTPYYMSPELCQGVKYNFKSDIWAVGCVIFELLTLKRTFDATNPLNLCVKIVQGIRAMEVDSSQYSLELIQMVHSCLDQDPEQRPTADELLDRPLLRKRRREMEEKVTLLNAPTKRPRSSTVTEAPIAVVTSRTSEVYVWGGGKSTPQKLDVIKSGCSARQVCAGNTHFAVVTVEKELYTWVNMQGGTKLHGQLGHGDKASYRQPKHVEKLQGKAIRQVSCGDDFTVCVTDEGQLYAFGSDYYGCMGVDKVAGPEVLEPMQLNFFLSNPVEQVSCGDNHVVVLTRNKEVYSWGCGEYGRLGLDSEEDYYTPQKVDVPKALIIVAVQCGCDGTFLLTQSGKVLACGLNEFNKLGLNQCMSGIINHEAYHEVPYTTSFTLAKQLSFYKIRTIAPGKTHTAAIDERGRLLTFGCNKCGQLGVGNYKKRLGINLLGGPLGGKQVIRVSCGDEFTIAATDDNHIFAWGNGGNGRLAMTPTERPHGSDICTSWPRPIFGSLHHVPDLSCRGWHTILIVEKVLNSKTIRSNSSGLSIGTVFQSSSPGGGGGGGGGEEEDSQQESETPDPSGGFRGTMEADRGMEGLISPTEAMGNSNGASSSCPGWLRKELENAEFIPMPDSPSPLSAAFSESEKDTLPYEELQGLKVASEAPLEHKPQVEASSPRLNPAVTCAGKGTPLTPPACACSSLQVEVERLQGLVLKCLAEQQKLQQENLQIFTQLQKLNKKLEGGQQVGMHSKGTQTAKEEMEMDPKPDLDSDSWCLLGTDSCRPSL

The next experiment addresses T2, Pyridoxal kinase (Homo sapiens, UniProt O00764).
T2 sequence (O00764 whole entry): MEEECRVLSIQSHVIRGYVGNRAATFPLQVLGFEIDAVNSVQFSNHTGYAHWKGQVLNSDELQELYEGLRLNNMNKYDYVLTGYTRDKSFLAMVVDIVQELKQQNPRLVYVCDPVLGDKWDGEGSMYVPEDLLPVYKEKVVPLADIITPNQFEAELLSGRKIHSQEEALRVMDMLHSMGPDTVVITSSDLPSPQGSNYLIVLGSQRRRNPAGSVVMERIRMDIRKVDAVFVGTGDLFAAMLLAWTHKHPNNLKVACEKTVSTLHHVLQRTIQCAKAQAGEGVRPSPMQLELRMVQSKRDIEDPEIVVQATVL

In experiment [4] the target is T3, Membrane-associated tyrosine- and threonine-specific cdc2-inhibitory kinase (Homo sapiens, UniProt Q99640).
T3 sequence (Q99640 whole entry): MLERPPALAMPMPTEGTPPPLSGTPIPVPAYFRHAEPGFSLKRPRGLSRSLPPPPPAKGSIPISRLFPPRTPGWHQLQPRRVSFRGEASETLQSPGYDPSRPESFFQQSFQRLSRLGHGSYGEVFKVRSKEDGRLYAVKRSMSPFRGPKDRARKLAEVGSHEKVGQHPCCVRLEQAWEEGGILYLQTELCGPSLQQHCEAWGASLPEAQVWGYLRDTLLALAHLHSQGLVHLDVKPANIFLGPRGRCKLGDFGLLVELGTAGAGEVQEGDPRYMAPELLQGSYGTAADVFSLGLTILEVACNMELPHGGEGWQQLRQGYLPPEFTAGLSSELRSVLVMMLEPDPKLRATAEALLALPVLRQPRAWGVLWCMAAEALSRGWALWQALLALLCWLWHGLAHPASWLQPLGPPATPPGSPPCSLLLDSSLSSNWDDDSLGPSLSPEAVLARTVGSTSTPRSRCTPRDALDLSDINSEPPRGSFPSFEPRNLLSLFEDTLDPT

Experiment [5] has as its target T4, Exosome RNA helicase MTR4 (Homo sapiens, UniProt P42285).
T4 sequence (P42285 whole entry): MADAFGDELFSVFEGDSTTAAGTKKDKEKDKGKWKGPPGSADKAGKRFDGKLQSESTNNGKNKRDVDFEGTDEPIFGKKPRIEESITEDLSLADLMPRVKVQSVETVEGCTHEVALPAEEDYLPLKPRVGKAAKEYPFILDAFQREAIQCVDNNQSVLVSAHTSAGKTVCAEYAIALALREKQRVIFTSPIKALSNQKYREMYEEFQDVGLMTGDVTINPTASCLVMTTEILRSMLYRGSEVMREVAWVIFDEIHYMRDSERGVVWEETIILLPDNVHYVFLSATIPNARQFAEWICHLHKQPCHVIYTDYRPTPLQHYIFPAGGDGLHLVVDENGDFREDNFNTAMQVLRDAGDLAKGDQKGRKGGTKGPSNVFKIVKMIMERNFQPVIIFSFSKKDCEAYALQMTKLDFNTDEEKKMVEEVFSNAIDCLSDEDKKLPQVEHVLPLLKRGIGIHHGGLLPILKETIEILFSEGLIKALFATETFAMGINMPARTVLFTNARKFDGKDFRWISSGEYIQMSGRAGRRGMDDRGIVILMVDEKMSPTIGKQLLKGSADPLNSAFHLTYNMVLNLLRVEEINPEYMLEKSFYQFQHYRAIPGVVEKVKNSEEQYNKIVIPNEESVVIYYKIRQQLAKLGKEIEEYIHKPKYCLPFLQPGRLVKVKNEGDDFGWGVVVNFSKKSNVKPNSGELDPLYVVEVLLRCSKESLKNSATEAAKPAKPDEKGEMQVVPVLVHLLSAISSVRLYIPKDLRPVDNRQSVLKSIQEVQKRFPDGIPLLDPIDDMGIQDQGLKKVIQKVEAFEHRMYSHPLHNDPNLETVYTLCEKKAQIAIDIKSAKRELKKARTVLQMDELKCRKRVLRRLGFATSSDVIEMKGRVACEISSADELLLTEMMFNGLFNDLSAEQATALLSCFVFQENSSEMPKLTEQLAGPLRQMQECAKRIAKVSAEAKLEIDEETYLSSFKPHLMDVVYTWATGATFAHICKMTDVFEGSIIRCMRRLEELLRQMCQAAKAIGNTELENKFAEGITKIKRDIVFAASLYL

The target of experiment [6] is TRAF2 and NCK-interacting protein kinase (Homo sapiens, UniProt Q9UKE5).

A word on the Kd: it is the equilibrium constant for the complex coming apart.

Active and inactive are the calls of the source.
Note: in the data inactive means no Kd found up to 30 µM.

TRAF2 and NCK-interacting protein kinase, sequence (Q9UKE5 whole entry): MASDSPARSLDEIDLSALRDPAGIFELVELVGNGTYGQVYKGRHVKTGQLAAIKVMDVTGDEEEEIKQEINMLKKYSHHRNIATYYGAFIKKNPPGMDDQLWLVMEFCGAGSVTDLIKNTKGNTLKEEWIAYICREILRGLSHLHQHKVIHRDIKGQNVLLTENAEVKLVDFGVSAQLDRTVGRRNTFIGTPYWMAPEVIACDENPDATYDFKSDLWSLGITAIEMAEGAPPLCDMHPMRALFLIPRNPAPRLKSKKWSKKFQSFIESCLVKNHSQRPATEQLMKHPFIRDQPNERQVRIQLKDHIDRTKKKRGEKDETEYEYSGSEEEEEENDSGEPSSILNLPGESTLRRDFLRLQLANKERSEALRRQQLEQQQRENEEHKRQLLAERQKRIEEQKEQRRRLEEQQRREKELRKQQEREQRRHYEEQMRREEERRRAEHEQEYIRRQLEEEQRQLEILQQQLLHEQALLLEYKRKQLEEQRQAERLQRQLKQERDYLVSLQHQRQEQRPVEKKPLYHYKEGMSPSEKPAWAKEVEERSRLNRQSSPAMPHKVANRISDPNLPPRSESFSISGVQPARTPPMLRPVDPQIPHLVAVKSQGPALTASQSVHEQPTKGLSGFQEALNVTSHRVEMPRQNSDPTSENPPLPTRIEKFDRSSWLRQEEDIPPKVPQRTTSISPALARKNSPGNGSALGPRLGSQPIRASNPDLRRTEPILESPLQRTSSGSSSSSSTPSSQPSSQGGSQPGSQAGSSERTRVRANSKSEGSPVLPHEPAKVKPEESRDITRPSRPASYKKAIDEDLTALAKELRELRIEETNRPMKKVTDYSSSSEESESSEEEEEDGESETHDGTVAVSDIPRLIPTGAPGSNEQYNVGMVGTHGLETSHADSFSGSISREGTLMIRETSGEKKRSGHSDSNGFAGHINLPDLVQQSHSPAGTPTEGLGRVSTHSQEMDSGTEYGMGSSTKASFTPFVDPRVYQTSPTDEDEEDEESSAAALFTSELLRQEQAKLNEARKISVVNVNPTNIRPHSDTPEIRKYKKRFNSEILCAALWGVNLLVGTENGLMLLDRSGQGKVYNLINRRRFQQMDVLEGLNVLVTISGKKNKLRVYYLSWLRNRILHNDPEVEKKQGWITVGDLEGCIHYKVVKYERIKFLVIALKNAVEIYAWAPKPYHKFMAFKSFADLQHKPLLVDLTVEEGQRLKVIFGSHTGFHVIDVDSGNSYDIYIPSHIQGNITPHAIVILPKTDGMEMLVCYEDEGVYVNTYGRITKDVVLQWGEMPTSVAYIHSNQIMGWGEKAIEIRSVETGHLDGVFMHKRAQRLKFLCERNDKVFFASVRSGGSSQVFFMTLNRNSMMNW
NADH dehydrogenase [ubiquinone] 1 alpha subcomplex subunit 13, sequence (Q9P0J0 whole entry, one chain of several): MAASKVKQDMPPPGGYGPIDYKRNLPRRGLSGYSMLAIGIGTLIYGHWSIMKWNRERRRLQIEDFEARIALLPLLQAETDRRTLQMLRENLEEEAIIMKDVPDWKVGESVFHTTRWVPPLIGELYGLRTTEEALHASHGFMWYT
Cyclin-dependent kinase 4, sequence (P11802 whole entry): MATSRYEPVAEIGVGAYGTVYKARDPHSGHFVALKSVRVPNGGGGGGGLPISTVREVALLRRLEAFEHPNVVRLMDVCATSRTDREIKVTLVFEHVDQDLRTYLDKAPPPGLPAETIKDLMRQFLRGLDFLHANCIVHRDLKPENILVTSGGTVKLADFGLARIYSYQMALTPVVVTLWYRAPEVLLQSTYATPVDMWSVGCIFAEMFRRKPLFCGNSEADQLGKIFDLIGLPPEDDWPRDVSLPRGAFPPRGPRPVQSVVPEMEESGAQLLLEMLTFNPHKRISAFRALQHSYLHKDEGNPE

Regarding `COc1cc(N2CCC(N3CCN(C)CC3)CC2)ccc1Nc1ncnc(Nc2ccccc2S(=O)(=O)C(C)C)n1` [ASP-3026], the Kd (in experiment [1]; in experiment [2]; in experiment [3]; on Pyridoxal kinase; in experiment [4]; in experiment [5]) was > 30 µM (inactive) in each case. Moreover, the Kd in experiment [6] is > 30 µM (inactive).

Take `CN1CCC(CNc2ccc3ncc(-c4cccc(OC(F)(F)F)c4)n3n2)CC1` [SGI-1776]: the Kd (in experiment [1]; in experiment [2]; in experiment [3]; at Pyridoxal kinase; in experiment [4]; in experiment [5]) was > 30 µM (inactive) in each case. Further, the Kd in experiment [6] was > 30 µM (inactive).

Regarding `CC(=O)Nc1cccc(-n2c(=O)n(C3CC3)c(=O)c3c(Nc4ccc(I)cc4F)n(C)c(=O)c(C)c32)c1` [TRAMETINIB], the Kd (in experiment [1]; in experiment [2]; in experiment [3]; on Pyridoxal kinase; in experiment [4]; in experiment [5]) was > 30 µM (inactive) in each case. In addition, the Kd in experiment [6] is > 30 µM (inactive).

`Cn1ncc(Cl)c1-c1cc(C(=O)N[C@H](CN)Cc2cccc(F)c2)sc1Cl` [AFURESERTIB]: the Kd (in experiment [1]; in experiment [2]; in experiment [3]; at Pyridoxal kinase; in experiment [4]; in experiment [5]) was > 30 µM (inactive) each time. In addition, the Kd in experiment [6] is > 30 µM (inactive).

Regarding `OCCn1cc(-c2cnc3nnn(Cc4ccc5ncccc5c4)c3n2)cn1` [PF-04217903], the Kd (in experiment [1]; in experiment [2]; in experiment [3]; at Pyridoxal kinase; in experiment [4]; in experiment [5]) was > 30 µM (inactive) in each case. The Kd in experiment [6] was > 30 µM (inactive).

For `CCCS(=O)(=O)Nc1ccc(F)c(C(=O)c2c[nH]c3ncc(-c4ccc(Cl)cc4)cc23)c1F` [VEMURAFENIB], the Kd (in experiment [1]; in experiment [2]; in experiment [3]; at Pyridoxal kinase; in experiment [4]; in experiment [5]) was > 30 µM (inactive) throughout. For the same molecule, in experiment [6], the Kd is > 30 µM (inactive).

With `COCCNCc1ccc(-c2cc3nccc(Oc4ccc(NC(=S)NC(=O)Cc5ccc(F)cc5)cc4F)c3s2)nc1` [GLESATINIB], the Kd (in experiment [1]; in experiment [2]; in experiment [3]; on Pyridoxal kinase; in experiment [4]; in experiment [5]) was > 30 µM (inactive) throughout. Also, the Kd in experiment [6] is > 30 µM (inactive).

For `COC(=O)[C@@]1(O)C[C@H]2O[C@]1(C)n1c3ccccc3c3c4c(c5c6ccccc6n2c5c31)C(=O)NC4` [K-252A], the Kd in experiment [1] was 0.014 µM; in experiment [2], > 30 µM (inactive); in experiment [3] it was > 30 µM (inactive); at Pyridoxal kinase, > 30 µM (inactive); in experiment [4], > 30 µM (inactive); in experiment [5], > 30 µM (inactive). For the same molecule, the Kd in experiment [6] was 0.01 µM (active).

As for `Cn1cc(-c2ccc3nnc(C(F)(F)c4ccc5ncccc5c4)n3n2)cn1` [JNJ-38877605], the Kd (in experiment [1]; in experiment [2]; in experiment [3]; on Pyridoxal kinase; in experiment [4]; in experiment [5]) was > 30 µM (inactive) each time. In experiment [6], the Kd was > 30 µM (inactive).

As for `COc1cc(CCc2cc(NC(=O)c3ccc(N4C[C@@H](C)N[C@@H](C)C4)cc3)n[nH]2)cc(OC)c1` [AZD-4547], the Kd (in experiment [1]; in experiment [2]; in experiment [3]; at Pyridoxal kinase; in experiment [4]; in experiment [5]) was > 30 µM (inactive) in each case. This molecule yielded a Kd in experiment [6] of 1.39 µM.

With `CN1CC[C@@H](c2c(O)cc(O)c3c(=O)cc(-c4ccccc4Cl)oc23)[C@@H]1CO`, the Kd (in experiment [1]; in experiment [2]; in experiment [3]; on Pyridoxal kinase; in experiment [4]; in experiment [5]) was > 30 µM (inactive) each time. For the same molecule, the Kd in experiment [6] was > 30 µM (inactive).

`N[C@@H]1CCCN(c2c(/C=C3\SC(=O)NC3=O)cccc2-c2ccccc2)C1`: the Kd (in experiment [1]; in experiment [2]; in experiment [3]; at Pyridoxal kinase; in experiment [4]; in experiment [5]) was > 30 µM (inactive) throughout. The Kd in experiment [6] was > 30 µM (inactive).

Regarding `CCN1CCN(Cc2ccc(-c3cc4c(N[C@H](C)c5ccccc5)ncnc4[nH]3)cc2)CC1` [AEE-788], the Kd (in experiment [1]; in experiment [2]; in experiment [3]; on Pyridoxal kinase; in experiment [4]; in experiment [5]) was > 30 µM (inactive) throughout. Besides, in experiment [6], the Kd is > 30 µM (inactive).
